Test results taken from PMC6009935 (Journal of Enzyme Inhibition and Medicinal Chemistry, 2017).
Where two headings read alike, the source gives them in different places.

Key:
[1] = molecular target: T1, cannabinoid receptors (CBR) (Rattus norvegicus, UniProt P20272); assay: biochemical; assay type: binding
T1 construct: a: performed in rat whole brain membrane homogenates; from tissue; host or cells: Wistar rat whole brain membrane homogenate
Experimental: (§1) Tris-HCl, EGTA, NaCl, MgCl2 x 6H2O, GDP, the GTP analogue GTPγS, were purchased from Sigma-Aldrich (Budapest, Hungary). Fatty acid free bovine serum albumin (BSA) was purchased from Serva (Heidelberg, Germany). Naloxone was kindly provided by the company Endo Laboratories DuPont de Nemours (Wilmington, DE, USA). HS665 was provided by Schmidhammer’s group (University of Innsbruck, Austria). […]
(§2) purchased from Tocris Bioscience (Bristol, UK).
(§3) DMSO. All compounds were stored in 1 mM stock solution at -20 °C. The radiolabelled GTP analogue, [35S]GTPγS (specific activity: 1000 Ci/mmol) were purchased from Hartmann Analytic (Braunschweig, Germany). [3H]DAMGO (specific activity: 38.8 Ci/mmol),12 [3H]IleDelt II (specific activity: 19,6 Ci/mmol), [3H]WIN55,212-2 (specific activity: 13,1 Ci/mmol) and [3H]HS665 (specific activity: 36.62 Ci/mmol),3 were radiolabeled by the Laboratory of Chemical Biology group in BRC (Szeged, Hungary).
(§4) For membrane homogenate preparations male and female Wistar rats (250-300 g body weight) and male guinea pigs (~700 g body weight, LAL/HA/BR strain) were used. Rats were housed in the local animal house of BRC (Szeged, Hungary), while guinea pigs were housed in LAB-ÁLL Bt.
(§5) (Budapest, Hungary). All the animals were kept in a temperature controlled room (21-24 °C) under a 12:12 light and dark cycle and were provided with water and food ad libitum. All housing and experiments were conducted in accordance with the European Communities Council Directives (2010/63/EU) and the Hungarian Act for the Protection of Animals in Research (XXVIII.tv. 32.§).
(§6) The total number of animals as well as their suffering was minimized.
(§7) Rat and guinea pig brain membrane homogenate preparation for binding assays Rats and guinea pigs were decapitated and their brains were quickly removed. The brains were prepared for membrane preparation as previously described,4 and partly used for binding experiments and partly were further prepared for the [35S]GTPγS binding experiments. Briefly the brains were homogenized, centrifuged in ice-cold 50 mM Tris-HCl (pH 7.4) buffer and incubated at 37 °C for 30 min in a shaking water-bath. After incubation the centrifugation was repeated as described above and the final pellet was suspended in 50 mM Tris-HCl pH 7.4 buffer containing 0.32 M sucrose, and stored at -80 °C. For the [35S]GTPγS binding experiments the final pellet of rat […]
(§8) brain membrane homogenate was suspended in ice-cold TEM (Tris-HCl, EGTA, MgCl2) and stored at -80 °C for further use.
(§9) Radioligand competition binding experiments
(§10) Aliquots of frozen rat brain membrane homogenates were centrifuged (18 000 rpm, 20 min, 4 °C) to remove sucrose and the pellets were suspended in 50 mM Tris-HCl buffer (pH 7.4). Membranes containing 0.4-0.8 mg/mL of protein were incubated in a final volume of 1 mL in the presence of unlabeled 5, 10 and 9 in increasing concentrations (10-11-10-5 M) in the presence of the appropriate radioligand in ~1 nM concentrations at certain temperature and amount of time depending on the radioligand ([3H]DAMGO and [3H]IleDelt II: 35 °C for 45 min; [3H]HS665: 30 °C, 45 min; [3H]WIN55,212-2: 30 °C for 60 min). Experiments performed with [3H]HS665 where incubated […]
(§11) more kappa receptors than the rat brain), while the rest of the radioligands were incubated together with rat whole brain membrane homogenates. Additionally, in experiments performed with […]
(§12) increasing concentrations (10-11-10-5 M) together with 50 mM Tris/HCl, 2.5 mM EGTA, 5 mM MgCl2 and 0.5 mg/mL fatty acid free BSA (pH 7.4). The level of non-specific binding was […]
(§13) binding was determined in the absence of unlabeled compounds. The reaction was terminated by rapid filtration under vacuum (Brandel M24R Cell Harvester), and washed three times with 5 mL ice-cold 50 mM Tris-HCl or 50 mM Tris/HCl, 2.5 mM EGTA, 5 mM MgCl2, 0.5 % BSA (pH 7.4) in case of [3H]WIN55,212-2. The filtration was accomplished through Whatman GF/C ([3H]DAMGO, [3H]IleDelt II and [3H]HS665) or GF/B ([3H]WIN55,212-2) glass fibers. In case of […]

MOR = molecular target: T2, MOR (Rattus norvegicus, UniProt P33535); assay: Radioligand competition binding with [3H]DAMGO; settings: for Ki: Cheng-Prusoff; for IC50: read-out: logIC50 ± S.E.M., [3H]DAMGO (MOR) (converted)
T2 construct: a: performed in rat whole brain membrane homogenates; from tissue; host or cells: Wistar rat whole brain membrane homogenate
T2 sequence (P33535 whole entry): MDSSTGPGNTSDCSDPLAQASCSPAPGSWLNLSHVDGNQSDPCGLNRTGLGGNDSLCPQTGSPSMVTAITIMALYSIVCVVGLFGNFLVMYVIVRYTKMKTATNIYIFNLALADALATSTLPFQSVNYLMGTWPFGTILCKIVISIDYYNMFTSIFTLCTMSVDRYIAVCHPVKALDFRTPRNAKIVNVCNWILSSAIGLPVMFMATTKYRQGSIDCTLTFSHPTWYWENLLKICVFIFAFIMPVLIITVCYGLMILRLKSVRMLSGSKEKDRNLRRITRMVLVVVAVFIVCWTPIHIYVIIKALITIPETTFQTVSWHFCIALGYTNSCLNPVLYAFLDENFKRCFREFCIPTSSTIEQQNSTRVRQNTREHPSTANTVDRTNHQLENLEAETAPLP
Experimental: as §1, §2, §3, §4, §5, §6, §7, §8, §9, §10, §11, §12, §13

DOR = molecular target: T3, DOR (Rattus norvegicus, UniProt P33533); assay: Radioligand competition binding with [3H]IleDelt II
T3 construct: a: performed in rat whole brain membrane homogenates; from tissue; host or cells: Wistar rat whole brain membrane homogenate
T3 sequence (P33533 whole entry): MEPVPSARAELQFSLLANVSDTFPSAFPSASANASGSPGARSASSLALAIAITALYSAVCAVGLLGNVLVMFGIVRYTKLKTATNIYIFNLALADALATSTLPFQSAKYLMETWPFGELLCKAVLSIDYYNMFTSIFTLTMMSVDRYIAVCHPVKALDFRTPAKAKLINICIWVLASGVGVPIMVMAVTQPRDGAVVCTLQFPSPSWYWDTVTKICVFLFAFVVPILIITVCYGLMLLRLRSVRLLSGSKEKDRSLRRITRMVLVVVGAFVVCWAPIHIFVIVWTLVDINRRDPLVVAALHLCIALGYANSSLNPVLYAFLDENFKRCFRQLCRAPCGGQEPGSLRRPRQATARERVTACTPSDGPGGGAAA
Experimental: as §1, §2, §3, §4, §5, §6, §7, §8, §9, §10, §11, §12, §13

[2] = system: hypothalamic synaptosomes; assay: In vitro hypothalamic perfusion test (neurotransmitter release); assay type: cell-based, rat; settings: 10 µM
Experimental: was evaluated with the analysis of variance followed by Dunnett’s post-hoc comparisons using GraphPad Prism 6.03 software. Statistical significance was assumed at least for P<0.05.
In vitro hypothalamic perfusion test
Hypothalamic synaptosomes were obtained from 18 male adult Sprague-Dawley rats (290-340 g), as previously described.9
Then, the synaptosome suspension was incubated at 37°C, under O2/CO2 95%/5%, pH 7.35-7.45, in Krebs-Ringer buffer (mM: NaCl 125, KCl 3, MgSO4 1.2, CaCl2 1.2, Tris-HCl 10, glucose 10, ascorbic acid 1). After the incubation period, identical aliquots of synaptosome suspension (1.24 mg protein determined by bicinchoninic acid protein assay) were layered onto 0.8 μm Millipore filters, placed into 37°C water-jacketed superfusion chambers [18 different chambers for each experiment and perfused with Krebs-Ringer buffer (0.6 mL/min)], and perfusate was collected (2 min fractions) to detect released neurotransmitters by HPLC coupled to electrochemical detection. The analytical conditions for amine identification and quantification in the perfusate fractions were selected on the basis of previous experiments performed on hypothalamus homogenate.10
The experimental protocol includes three phases: 10 min perfusion with Krebs-Ringer buffer in […]
buffer (stimulus); 8 min perfusion with Krebs-Ringer buffer for return to basal condition (post-stimulus). Perfusate was collected starting from the 8th minute of pre-stimulus. Perfusate aliquots were stored at -80°C, then lyophilized and finally suspended in 1 mL HPLC grade water for neurotransmitter quantification. Neurotransmitter release was expressed as mean percentage release recovered in the stimulus and post-stimulus, compared with initial basal conditions (pre-stimulus

[3] = rat whole brain membrane homogenates, logarithm of IC50, negative sign printed
[4] = rat whole brain membrane homogenates

T1 sequence (P20272 whole entry): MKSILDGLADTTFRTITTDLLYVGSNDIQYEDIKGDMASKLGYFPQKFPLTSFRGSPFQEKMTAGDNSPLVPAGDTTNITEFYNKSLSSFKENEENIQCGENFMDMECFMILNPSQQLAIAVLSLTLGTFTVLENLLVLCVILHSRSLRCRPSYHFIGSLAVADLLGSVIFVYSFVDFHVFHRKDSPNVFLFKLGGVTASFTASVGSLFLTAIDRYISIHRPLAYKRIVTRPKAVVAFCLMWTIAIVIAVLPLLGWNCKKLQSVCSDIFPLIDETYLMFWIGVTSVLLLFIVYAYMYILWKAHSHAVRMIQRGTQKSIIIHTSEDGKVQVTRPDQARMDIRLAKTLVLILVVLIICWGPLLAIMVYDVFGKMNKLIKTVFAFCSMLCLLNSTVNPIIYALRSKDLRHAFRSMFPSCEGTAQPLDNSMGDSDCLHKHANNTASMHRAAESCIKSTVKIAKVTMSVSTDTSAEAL

## Cc1c(C(=O)NC2CCNCC2)nn(-c2ccc(Cl)cc2Cl)c1-n1cccc1 [Compound 5]
[1]; [3]
  logIC50 ± S.E.M., [3H]WIN55,212 (CBR): ambiguous
MOR
  MOR binding affinity in words: did not bind
MOR; [3]
  logIC50 ± S.E.M., [3H]DAMGO (MOR): ambiguous
DOR
  DOR binding affinity in words: did not bind
DOR; [3]
  logIC50 ± S.E.M., [3H]IleDelt II (DOR): ambiguous
[2]
  effect on dopamine (DA) release: decreased

## Cc1c(C(=O)NC2CCN(C(=O)[C@H](Cc3ccccc3)NC(=O)CNC(=O)[C@@H](C)NC(=O)[C@@H](N)Cc3ccc(O)cc3)CC2)nn(-c2ccc(Cl)cc2Cl)c1-n1cccc1 [Compound 9]
[1]
  CBR / CB1R binding affinity in words: modest affinity
[1]; rat whole brain membrane homogenates, Cheng-Prusoff, read-out: Ki, [3H]WIN55,212 (CBR)
  Ki: 5.2 µM
[1]; rat whole brain membrane homogenates, logarithm of IC50, negative sign printed, read-out: logIC50 ± S.E.M., [3H]WIN55,212 (CBR) (converted)
  IC50: 6.03 µM
MOR
  MOR binding affinity in words: loss in affinity
MOR; [4]
  Ki: 0.0344 µM
MOR; [3]
  IC50: 0.204 µM
MOR; ratio of Ki values
  Selectivity ratio DOR/MOR: 12.88
  Selectivity ratio KOR/MOR: 4.93
DOR
  DOR binding affinity in words: loss in affinity
DOR; rat whole brain membrane homogenates, Cheng-Prusoff
  Ki: 0.443 µM
DOR; rat whole brain membrane homogenates, logarithm of IC50, negative sign printed, read-out: logIC50 ± S.E.M., [3H]IleDelt II (DOR) (converted)
  IC50: 1.29 µM
[2]
  effect on dopamine (DA) release: reduced inhibitory effect
  effect on norepinephrine (NE) release: significant stimulatory effect
  effect on serotonin (5-HT) release: no significant effects

## C[C@@H](NC(=O)[C@@H](N)Cc1ccc(O)cc1)C(=O)NCC(=O)N[C@@H](Cc1ccccc1)C(N)=O [Compound 10, Tyr-D-Ala-Gly-Phe-NH2, reference compound]
[1]
  CBR / CB1R binding affinity in words: did not show any affinity
[1]; [3]
  logIC50 ± S.E.M., [3H]WIN55,212 (CBR): ambiguous
MOR
  MOR binding affinity in words: high affinity
MOR; [4]
  Ki: 0.001 µM
MOR; [3]
  IC50: 0.00617 µM
DOR
  DOR binding affinity in words: high affinity
  IC50: 0.316 µM
  Ki: 0.107 µM
[2]
  effect on dopamine (DA) release: inhibitory effect
  effect on norepinephrine (NE) release: significant stimulatory effect
  effect on serotonin (5-HT) release: inhibitory effect
